Measured values: patent EP4352072B1, “SYNTHESIS OF A NOVEL GLUCOSE-CONJUGATED METHOTREXATE AND ITS APPLICATION FOR THE TREATMENT AND PREVENTION OF NEOPLASMS” (Uniwersytet Medyczny Im. Piastów Slaskich We Wroclawiu, priority 2021, dated 2022)
Read-outs that look alike come from different tables or passages of the source.

Columns and labels:
[1] = test system: MCF-7 (breast); assay: MTT cytotoxicity test, MCF-7; type: cell-based; conditions: Homo sapiens, MCF7, incubation 72 hours, read-out: IC50 values (µM) for individual cell lines MCF-7 (breast)
Experimental: (§1) Cells were seeded in a 96-well plate at 5-10 x 10^3 cells per well. After 24 hours, the culture medium was decanted and 100 µL of fresh medium was added to the control wells, while the medium with test compounds dissolved in DMSO was added to the test wells. The plates were wrapped in foil and placed in an incubator. After 72 hours of incubation, the medium was decanted and 100 µL of a solution of yellow soluble 3-(4,5-dimethyl-2-thiazolyl)-2,5-diphenyl-2H-tetrazolium bromide (MTT) at a concentration of 0.5-1 mg/mL was added. After 4 hours of incubation, the MTT solution was decanted and 50 µL/well of DMSO was added. After 3 hours, the optical density of the dissolved formazan was analyzed colorimetrically in a BioTek plate reader. […] Since living cells reduce MTT to formazan, the optical density (OD) is highest in the control (C) wells which accounted for 100% of cell viability. Viablity in wells incubated with compound (COMP) was calculated using the formula: X = 100% × OD COMP/OD C [formula] The results reported are the mean value of triplicate cytotoxicity analysis. Cell viability studies using the MTT assay on cell lines of numerous cancers, including breast cancer, colorectal cancer, lung cancer, skin cancer, and bone sarcoma have shown that Glu-MTX is cytotoxic in vitro. […]

[2] = male, BALB/ccmdb, mouse, in vivo, iv
Experimental: The pharmacokinetic profile of the glucose-methotrexate derivative according to the invention (GMTX; chemical formula: C42H58N16O15) was examined in relation to the profile of the classical form of this drug (MTX) after a single intravenous administration into the tail vein. The solutions administered to the animals were prepared on the day of administration.
GMTX was administered to mice intravenously via the tail vein, in a single dose, in the form of solutions (with concentrations ensuring that the animals are dosed appropriately) prepared in 5% DMSO and saline in the 1:20 ratio, in a volume not exceeding 0.2 cm^3/mouse. […]
Mice were administered intravenously (i.v.) GMTX and MTX and blood was collected (to obtain plasma) at 4 time points after injection (1 h, 2 h, 4 h and 8 h), as well as in the so-called time 0 (blood sampling from animals that received neither MTX nor GMTX). […] Another 16 males were administered GMTX at a dose of 400 mg/kg body weight, constituting ½ the MTD of this compound (determined in our study with the code T425/001/2020), and the remaining 8 subjects were not administered either classic MTX nor its glycoconjugate (GMTX). […]
The results of MTX and GMTX concentrations in the plasma of mice were statistically analyzed using the Statistica 13 computer program. The results were expressed as the mean concentration (± standard deviation - SD) at individual time points. […]

[3] = test system: A427 lung cancer tumor cells; assay: MS analysis of intracellular accumulation, A427; type: cell-based; conditions: 10 µM, 2 hours incubation
Experimental: (§2) Cells were seeded in a 6-well plate at 2.5 x 10^5 cells/well and 1 mL/well. When the cells reached 80% confluence, the culture medium was decanted and 1 mL per well of fresh medium to the control wells or 1 mL per well of the test medium with methotrexate at a concentration of 10 µM or a derivative of methotrexate at a concentration of 10 µM, respectively, was added. The plate was wrapped in foil and incubated for 2 hours in an incubator. After this time, the medium was decanted, and each well was washed with 2x1 mL of PBS at room temperature. Then, the plate was placed on ice and 500 µL of a 3:1 mixture of methanol and ultrapure water at -20 °C were applied to each well. The mixture was pipetted several times in each well and collected in a test tube. Then, the procedure was repeated and the prepared samples (each with a volume of 1 mL) were placed in a lowtemperature freezer at -80 °C. The next day, the samples were concentrated in a vacuum concentrator until the samples were completely dry. Prior to analysis, the solvent for MS analysis (Xevo G2 Q-TOF MS) was added to the sample. In figure 7 it can be seen that in case of MTX the surface area of MCF7 tumor cells grown with MTX is about 308 units, and when using a compound according to the invention (identified as 77_1 in Figure 7) it is 525, i.e. about 1.7 times less than in the case of a conjugate. […]

[4] = cited from earlier work
[5] = administered intravenously, cited from earlier work
[6] = test system: WI38 (healthy fibroblasts); assay: MTT cytotoxicity test, WI38; type: cell-based; conditions: Homo sapiens, WI-38, incubation 72 hours, read-out: IC50 values (µM) for individual cell lines WI38 (healthy fibroblasts)
Experimental: as §1

[7] = test system: MG-63 (bone sarcoma); assay: MTT cytotoxicity test, MG-63; type: cell-based; conditions: Homo sapiens, incubation 72 hours, read-out: IC50 values (µM) for individual cell lines MG-63 (bone sarcoma)
Experimental: as §1

[8] = test system: DLD-1 (large intestine); assay: MTT cytotoxicity test, DLD-1; type: cell-based; conditions: Homo sapiens, incubation 72 hours, read-out: IC50 values (µM) for individual cell lines DLD-1 (large intestine)
Experimental: as §1

[9] = test system: MCF-7 breast cancer tumor cells; assay: MS analysis of intracellular accumulation, MCF-7; type: cell-based; conditions: human, 2 h, 10 µM
Experimental: as §2

Compound: CN(Cc1cnc2nc(N)nc(N)c2n1)c1ccc(C(=O)N[C@@H](CCC(=O)O)C(=O)O)cc1 [MTX, Methotrexate]
- IC50 [1]: 9.61 ± 0.12 µM
- eliminated from the systemic circulation (time) [2]: ≤ 4 h
- surface area of MTX, times smaller compared to that of the conjugate [3]: 1.7 times
- bioavailability ([4]; in high doses): 10-20%
- bioavailability ([4]; in low doses): almost complete
- plasma half-life ([4]; in vivo): 5 to 8 h
- MTD ([5]; mice of the BALB/c strain, Moura et al. 2011): 94 mg/kg b.w.
- LD50 ([5]; mice): 65 mg/kg b.w.
- IC50 [6]: 16.9 ± 1.94 µM
- IC50 [7]: 61 ± 0.76 µM
- IC50 [8]: 6.85 ± 0.21 µM
- surface area (MS analysis) [9]: about 308 units
- surface area of MTX, times less than in the case of a conjugate [9]: about 1.7 times
